Measured values reported in patent publication US20110190235A1, “BORON-CONTAINING SMALL MOLECULES AS ANTIPROTOZOAL AGENTS” (Anacor Pharmaceuticals, Inc., priority 2009, published 2011).
Where two headings read alike, the source gives them in different places. Each block holds one compound with its values, some of them ahead of it.

Legend:
[1] = Pharmacokinetic studies in mice (plasma, brain); format: in vivo; conditions: for CL/F / half-life / Cmax / AUC(0-inf) / AUC(0-t): male, CD-1, mouse; for CL/F: read-out: Oral Clearance Cl/F (converted); for half-life: read-out: t½ (converted); for AUC(0-inf): read-out: Exposure/trapezoid AUC0-inf
Procedure: Male CD-1 mice weighing approximately 25 g received the test article (E19 or 82 or E14 or 69) by either intravenous (IV), oral gavage (OG) or intra-peritoneal (IP) routes. Animals in IV group (6-10 animals, 1-2 per time point) received a single bolus injection of approximately 2 mg/kg of the test article. Animals receiving […], or as 4 repeat doses ([…], 1-2 per time point).
All doses were administered as clear colorless solutions in either: 50% (v/v) PEG400:20% (v/v) ethanol:30% (v/v) carboxymethylcellulose (0.5% w/v in sterile water for injection, WFI), or as in situ sodium salts in 5% (m/v) dextrose:2% (v/v) ethanol in DWI. All dose solutions were delivered at 4 mL/kg. Animals were fasted for at least 4 hours before dosing, and for 2 hours after dosing.
Blood samples and brain tissue were sampled from 1 or 2 animals/timepoint/group immediately before dosing and approximately 0.17, 0.5, 1, 2, 3, 4, 6, 8, 12, 18 and 24 hr after dosing for full pharmacokinetic and tissue analysis, or at 0.5, 2 and 4 hours post dosing to assess early-phase CNS disposition.
Bioanalysis for test article in whole blood, plasma or brain tissue was performed by HPLC with tandem mass spectrometry (LC-MSMS). Whole blood and plasma samples were treated with 3 volumes of either acetonitrile or methanol to precipitate plasma proteins. Treated samples were centrifuged and supernatants removed for analysis. Brain tissues were weighed and homogenized mechanically in the presence of 1 volume of phosphate-buffered saline (PBS). The resulting tissue suspensions were then diluted with a further volume of PBS, and then treated in the same manner as whole blood or plasma.
Extracted samples were assayed for test article by means of LC-MSMS employing reversed-phase chromatography coupled to a triple quadrupole mass spectrometer employing electrospray ionization in the positive ion mode. The analytical column was a Phenomenex Luna 3μ C8 50×2 mm, with an online sample purification step performed on a Phenomenex Synergi 4μ Polar RP 50×2 mm column.
Test articles were eluted using a binary mobile phase gradient comprising 5 mM Ammonium Acetate: 0.1% formic acid in either MeOH or H2O.
Non-compartmental analysis of plasma test article concentration versus time was performed in Microsoft Excel to generate pharmacokinetic parameters including: area under the curve (AUC), clearance (as Cl or Cl/F), volume of distribution (Vdss), half-life (t½), and bioavailability (F).

[2] = Pharmacokinetic studies in rats (plasma, brain, CSF); format: in vivo; conditions: for half-life: read-out: t½ (converted); for Cmax / AUC(0-t) / AUC(0-inf): normalized to 25 mg/kg; for AUC(0-t): read-out: Exposure/trapezoid AUC0-18; for AUC(0-inf): read-out: Exposure/trapezoid AUC0-inf
Procedure: Male Sprague Dawley rats weighing approximately 200 g received test article (E19 or 82) as a single oral gavage (OG) dose of approximately 25 mg/kg (approximately 10 animals per group).
All doses were administered as clear colorless solutions as in situ sodium salts in 5% (m/v) dextrose:2% (v/v) ethanol in DWI. All dose solutions were delivered at 2 mL/kg. Animals were fasted for at least 4 hours before dosing, and for 2 hours after dosing.
Blood and CSF samples and brain tissue were sampled from 1 animal/timepoint/group immediately before dosing and approximately 0.5, 1, 2, 3, 4, 6, 8, 12, 18 and 24 hr after dosing for full pharmacokinetic (plasma and CSF) and tissue (Brain) analysis.

[3] = test system: bloodstream-form trypanosome T. brucei brucei 427 strain; assay: Trypanosoma brucei brucei high-throughput in vitro drug sensitivity assay (resazurin); format: cell-based; conditions: for IC50: Trypanosoma brucei; for Selectivity Index (L929 IC50 / T. b. brucei IC50): T. b. brucei vs L929
[4] = L929 cytotoxicity evaluation (resazurin); format: cell-based; conditions: mouse, 72 hrs incubation, read-out: Cytotox L-929 IC50
In short: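 Mouse L929 fibroblasts (1×10^4/mL seeding, attached overnight) were treated 72 h at 37 °C, 5% CO2 with serially diluted compounds in DMSO in D-MEM/10% FBS. Viability read by resazurin fluorescence after 3–4 h (ex 544/em 590 nm); IC50 from sigmoidal fits of single data points.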

[5] = 8 mg/kg, brain, oral, mice (Table 3a)
[6] = 8 mg/kg, brain, oral, mice, normalized to 25 mg/kg (Table 3a)
[7] = 8 mg/kg, plasma, oral, mice (Table 3a)
[8] = 8 mg/kg, plasma, oral, mice, normalized to 25 mg/kg (Table 3a)
[9] = male, Sprague Dawley, rat, CSF, oral, rats
[10] = male, Sprague Dawley, rat, brain, oral, rats
[11] = male, Sprague Dawley, rat, plasma, oral, rats
[12] = 72 hrs incubation, read-out: T.b. brucei IC50

CL/F [1, 5]: 134 mL/min/kg
half-life [1, 5]: 96 min
Cmax [1, 6]: 2440 ng/mL
AUC(0-inf) [1, 6]: 3150 ng·h/mL
AUC(0-t) ([1]; 8 mg/kg, brain, oral, mice, normalized to 25 mg/kg (Table 3a), read-out: Exposure/trapezoid AUC0-last): 3120 ng·h/mL
CL/F [1, 7]: 28.8 mL/min/kg
half-life [1, 7]: 178 min
Cmax [1, 8]: 3590 ng/mL
AUC(0-inf) [1, 8]: 15200 ng·h/mL
AUC(0-t) ([1]; 8 mg/kg, plasma, oral, mice, normalized to 25 mg/kg (Table 3a), read-out: Exposure/trapezoid AUC0-last): 14400 ng·h/mL
SMILES: O=C(Nc1ccc2c(c1)B(O)OC2)c1ccc(F)cc1Cl [E14, 2-Chloro-4-fluoro-N-(1-hydroxy-1,3-dihydro-benzo[c][1,2]oxaborol-6-yl)-benzamide]

half-life ([1]; 25 mg/kg, brain, oral, mice): 138 min
CL/F ([1]; 25 mg/kg, plasma, oral, mice): 3.83 mL/min/kg
half-life ([1]; 25 mg/kg, plasma, oral, mice): 1030 min
Cmax ([1]; brain, oral, mice, normalized to 25 mg/kg (nominal 25 mg/kg)): 6100 ng/mL
AUC(0-t) ([1]; brain, oral, mice, normalized to 25 mg/kg, read-out: Exposure/trapezoid AUC0-18): 13100 ng·h/mL
AUC(0-inf) ([1]; brain, oral, mice, normalized to 25 mg/kg): 13200 ng·h/mL
Cmax ([1]; plasma, oral, mice, normalized to 25 mg/kg (nominal 25 mg/kg)): 10000 ng/mL
AUC(0-t) ([1]; plasma, oral, mice, normalized to 25 mg/kg, read-out: Exposure/trapezoid AUC0-18): 70600 ng·h/mL
AUC(0-inf) ([1]; plasma, oral, mice, normalized to 25 mg/kg): 109000 ng·h/mL
dose proportionality of brain exposure ([1]; oral delivery to mice): generally dose-proportional increases
F (% of IV) ([1]; plasma, oral, mice): 26%
half-life ([2]; male, Sprague Dawley, rat, 25 mg/kg, CSF, oral, rats): 186 min
half-life ([2]; male, Sprague Dawley, rat, 25 mg/kg, brain, oral, rats): 156 min
CL/F ([2]; male, Sprague Dawley, rat, 25 mg/kg, plasma, oral, rats, read-out: Oral Clearance Cl/F (converted)): 4.35 mL/min/kg
half-life ([2]; male, Sprague Dawley, rat, 25 mg/kg, plasma, oral, rats): 486 min
Cmax [2, 9]: 1200 ng/mL
AUC(0-t) [2, 9]: 3800 ng·h/mL
AUC(0-inf) [2, 9]: 3900 ng·h/mL
Cmax [2, 10]: 2500 ng/mL
AUC(0-t) [2, 10]: 12700 ng·h/mL
AUC(0-inf) [2, 10]: 12700 ng·h/mL
Cmax [2, 11]: 12300 ng/mL
AUC(0-t) [2, 11]: 98300 ng·h/mL
AUC(0-inf) [2, 11]: 102000 ng·h/mL
time levels in brain and CSF are above the in vitro MIC ([2]; nominal single oral dose of 25 mg/kg to rats): 4 h
F (% of IV) ([2]; plasma, oral, rats): 123.0%
SMILES: O=C(Nc1ccc2c(c1)B(O)OC2)c1ccc(F)cc1C(F)(F)F [E19, 4-Fluoro-N-(1-hydroxy-1,3-dihydro-benzo[c][1,2]oxaborol-6-yl)-2-trifluoromethyl-benzamide]
brain concentrations relative to the MIC ([1]; mouse and rat, brain (and CSF)): decrease rapidly to levels below the MIC within a few hours after dosing
dose proportionality of plasma exposure ([1]; oral delivery to mice): greater than proportional at doses above 20 mg/kg
plasma PK when administered to rodents ([1]; rodents, plasma): good exposure (AUC and Cmax), promising bioavailability, prolonged half-life, and low clearance
dose proportionality of exposure in plasma, brain and CSF ([2]; rats): increase in a generally proportional manner with dose

IC50 [3, 12]: 2.85 µg/mL
SMILES: CC1(C)OB(O)c2cc(NC(=O)C3CCC3)ccc21 [compound 127, Cyclobutanecarboxylic acid (1-hydroxy-3,3-dimethyl-1,3-dihydro-benzo[c][1,2]oxaborol-6-yl)-amide]
IC50 at 72 h ([4]; L929 mouse fibroblast cells): > 10 µg/mL

IC50 [3, 12]: > 5 µg/mL
SMILES: CC1(C)OB(O)c2cc(NC(=O)C3CCCC3)ccc21 [compound 128, Cyclopentanecarboxylic acid (1-hydroxy-3,3-dimethyl-1,3-dihydro-benzo[c][1,2]oxaborol-6-yl)-amide]
IC50 at 72 h ([4]; L929 mouse fibroblast cells): > 10 µg/mL

IC50 [3, 12]: > 5 µg/mL
SMILES: CC1(C)OB(O)c2cc(NC(=O)C3CCCCC3)ccc21 [compound 129, Cyclohexanecarboxylic acid (1-hydroxy-3,3-dimethyl-1,3-dihydro-benzo[c][1,2]oxaborol-6-yl)-amide]
IC50 at 72 h ([4]; L929 mouse fibroblast cells): > 10 µg/mL

IC50 [3, 12]: > 5 µg/mL
SMILES: CC(=O)Nc1ccc2c(c1)B(O)OC2(C)C [compound 130, N-(1-Hydroxy-3,3-dimethyl-1,3-dihydro-benzo[c][1,2]oxaborol-6-yl)-acetamide]
IC50 at 72 h ([4]; L929 mouse fibroblast cells): > 10 µg/mL

SMILES: CC1(C)OB(O)c2cc(NC(=O)C(F)(F)C(F)(F)C(F)(F)F)ccc21 [compound 131, 2,2,3,3,4,4,4-Heptafluoro-N-(1-hydroxy-3,3-dimethyl-1,3-dihydro-benzo[c][1,2]oxaborol-6-yl)-butyramide]
IC50 ([3]; 72 h, read-out: T.b. brucei IC50 (ug/mL)): > 5 µg/mL
IC50 at 72 h [4]: > 10 µg/mL

IC50 [3, 12]: 3.81 µg/mL
SMILES: CCC(C)(C)C(=O)Nc1ccc2c(c1)B(O)OC2(C)C [compound 132, N-(1-Hydroxy-3,3-dimethyl-1,3-dihydro-benzo[c][1,2]oxaborol-6-yl)-2,2-dimethyl-butyramide]
IC50 at 72 h ([4]; L929 mouse fibroblast cells): > 10 µg/mL

IC50 [3, 12]: 0.191 µg/mL
SMILES: O=C(Nc1ccc2c(c1)B(O)OC21CC1)c1ccc(F)cc1C(F)(F)F [compound 133]
Selectivity Index (L929 IC50 / T. b. brucei IC50) [3]: 100
IC50 at 72 h ([4]; L929 mouse fibroblast cells): > 10 µg/mL

SMILES: O=C(Nc1ccc2c(c1)B(O)OC21CCCC1)c1ccccc1Cl [compound 137, 2-Chloro-N-(1-hydroxy-3,3-spirocyclopentyl′-1,3-dihydro-benzo[c][1,2]oxaborol-6-yl)-benzamide]
Selectivity Index (L929 IC50 / T. b. brucei IC50) [3]: >3
IC50 ([3]; 72 hrs incubation, read-out: T. b. brucei IC50): 10.6 µM
IC50 [3, 12]: 3.62 µg/mL
IC50 at 72 h ([4]; L929 mouse fibroblast cells): > 10 µg/mL
